A word on the inhibition: it is how much of the control response was suppressed. Higher therefore signals strong suppression. Usually IC50 stands for the midpoint of a concentration-inhibition curve. Low readings indicate higher potency, high ones lower potency.

The target of one assay is T1, Human 5-lipoxygenase (Homo sapiens, UniProt P09917).
T1 construct: purchased Cayman 60402; host or cells: insect cells
T1 sequence (P09917 1-674): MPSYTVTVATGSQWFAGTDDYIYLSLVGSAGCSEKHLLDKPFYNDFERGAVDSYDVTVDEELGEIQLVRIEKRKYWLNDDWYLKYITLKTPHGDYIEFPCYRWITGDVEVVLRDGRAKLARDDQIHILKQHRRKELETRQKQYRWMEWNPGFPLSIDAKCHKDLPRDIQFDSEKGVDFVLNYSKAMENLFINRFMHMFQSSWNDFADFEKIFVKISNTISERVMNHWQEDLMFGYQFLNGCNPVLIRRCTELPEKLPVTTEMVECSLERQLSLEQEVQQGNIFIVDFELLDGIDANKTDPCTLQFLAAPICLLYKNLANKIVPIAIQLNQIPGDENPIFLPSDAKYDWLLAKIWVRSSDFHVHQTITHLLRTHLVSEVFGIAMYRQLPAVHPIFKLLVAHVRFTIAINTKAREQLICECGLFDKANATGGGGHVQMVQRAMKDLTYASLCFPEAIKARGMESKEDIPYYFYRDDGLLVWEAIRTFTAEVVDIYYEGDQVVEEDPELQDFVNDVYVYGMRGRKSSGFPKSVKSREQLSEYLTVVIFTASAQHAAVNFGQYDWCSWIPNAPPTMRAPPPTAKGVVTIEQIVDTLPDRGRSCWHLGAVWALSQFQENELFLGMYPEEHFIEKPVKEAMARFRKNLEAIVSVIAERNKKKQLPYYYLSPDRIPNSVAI
Briefly: Activity of compounds against 5-LO enzyme (LTB4 measurement and/or fluorescence method). It counts as biochemical. Particulars: 5-LO, single concentration of 10 uM in duplicate. As to the method: The activity of compounds against 5-LO were determined by measuring LTB4 (leukotriene B4) levels and/or by a fluorescence method. Both approaches are outlined in more detail below;
Human 5-lipoxygenase (Cayman, Cat#60402) produced in insect cells was pre-incubated with compound for 15 min at RT in incubation buffer (50 mM Tris-Cl, pH 7.4, 2 mM CaCl2, 0.1 mM ATP, 1% DMSO). The enzymatic reaction was started by adding arachidonic acid to a final concentration of 3 uM. After 5 min of incubation at 37° C., the reaction was stopped by heatinactivation at 80° C. for 5 min. LTB4 levels were quantified by using LTB4 EIA kit (Cayman, Cat#520111) as instructed and/or LTB4 levelswere measured with LC/MS/MS using Quattro Premier™ XE tandem quadrupole mass spectrometer equipped with Acquity UPLC system (Waters, Milford, Mass.). The method was slightly modified as reported previously (Zweifel et al., 2008, Willey et al., 2008, Chappell et al, 2011). Briefly, chromatographic separation was carried out with Acquity UPLC BEH Shield RP18 Column (2.1 mm×50 mm, 1.7 μm particle size, Waters, Milford, Mass.). Sample injection volume was 10 μl, the column temperature was 35° C., the mobile phase A consisted of water with 0.1% formic acid and the mobile phase B consisted of acetonitrile with 0.1% formic acid. Flow rate was 0.4 mL/min and the gradient condition was as follows.
Relative quantification of LTB4 and LTB4-d4 (Internal Standard) was done using multi reaction monitoring (MRM) of the transitions of m/z 335→195 for LTB4, 339→197 for LTB4-d4 in electrospray ionization (ESI) negative mode. Desolvation temperature was 400° C., source temperature was 130° C. Capillary voltage, cone voltage, and collision voltage were 3.5 kV, 30V, and 20 eV, respectively. Nitrogen was used for desolvation (750 L/h) and cone (50 L/h) gas. Argon was used for collision gas (0.22 ml/min). The dwell time was 10 ms.
Besides the two methods quantifying LTB4 level, a fluorescence assay measuring 5-HpETE was introduced for high-throughput screening in a 384 well microplate format (Pufahl et al., 2007). For nonspecific ester cleavage of the acetate groups in H2DCFDA, the insect cell lysate expressing human 5-LO (Cayman Cat#60402) was incubated with H2DCFDA (50 mM Tris-Cl, pH 7.5, 2 mM CaCl2, 20 uM H2DCFDA, 500 mU 5-LO per reaction) for 5 minutes. Compound and enzyme mixture were pre-incubated for 5 minutes, and the enzymatic reaction was initiated by addition of ATP and arachidonic acid to a final concentration of 100 uM and 3 uM, respectively. After 5 minutes of incubation, the fluorescence was measured using Spectramax M5 (Molecular Device, Ex/Em=485 nm/530 nm). All steps were carried out at room temperature.
A total of 378 compounds were initially tested at a single concentration of 10 uM in duplicate with the results summarized in Table 1. From these 378 compounds, 53 compounds plus an additional 25 were selected for confirmation of activity by 6 or 11 point dose response in duplicate with the corresponding IC50 values outlined in Table 2.
In turn, `CCCc1nc2ccccn2c1C(=O)NCc1ccc(-c2ccccc2)cc1` [compound 46, N-(Biphenyl-4-ylmethyl)-2-propylimidazo[1,2-a]pyridine-3-carboxamide] came in with an inhibition at 10 µM of 40 to 69%.
Regarding `CCc1nc2ccc(Cl)cn2c1C(=O)NCc1ccc(-c2cccc(C)c2)cc1` [compound 76, 6-Chloro-2-ethyl-N-((3′-methylbiphenyl-4-yl)methyl)imidazo[1,2-a]pyridine-3-carboxamide], the inhibition at 10 µM was 40 to 69%.
For `CCc1nc2cc(Cl)ccn2c1C(=O)NCc1ccc(-c2ccc(OC)cc2)cc1` [compound 113, 7-Chloro-2-ethyl-N-((4′-methoxybiphenyl-4-yl)methyl)imidazo[1,2-a]pyridine-3-carboxamide], the inhibition at 10 µM is 40 to 69%.
For `CCc1nc2ccc(Cl)cn2c1CNCc1ccc(N2CCC(OCc3ccccc3)CC2)cc1` [compound 341, N-(4-(4-(benzyloxy)piperidin-1-yl)benzyl)-1-(6-chloro-2-ethylimidazo[1,2-a]pyridin-3-yl)methanamine], the inhibition at 10 µM is 40 to 69%.
Turning to `CCc1nc2ccccn2c1C(=O)NCc1ccc(N2CCC(c3ccc(F)cc3)CC2)cc1` [compound 265, 2-Ethyl-N-(4-(4-(4-fluorophenyl)piperidin-1-yl)benzyl)imidazo[1,2-a]pyridine-3-carboxamide], the inhibition at 10 µM was greater than 69%.
In turn, `CCc1nc2cc(Cl)ccn2c1C(=O)NCc1ccc(N2CCC(Oc3ccc(C(F)(F)F)cc3)CC2)cc1` [compound 169, 7-Chloro-2-ethyl-N-(4-(4-(4-(trifluoromethyl)phenoxy)piperidin-1-yl)benzyl)imidazo[1,2-a]pyridine-3-carboxamide] yielded an inhibition at 10 µM of 40 to 69%.
Same read-out and setting: the value for `Cc1nc2ccc(Cl)cn2c1C(=O)NCc1ccc(-c2ccccc2)cc1` [compound 43, N-(Biphenyl-4-ylmethyl)-6-chloro-2-methylimidazo[1,2-a]pyridine-3-carboxamide] was less than 40%; that for `CCc1nc2ccc(Cl)cn2c1C(=O)NCc1ccc(N2CCC(C(=O)c3ccc(OC(F)(F)F)cc3)CC2)cc1` [compound 324, 6-chloro-2-ethyl-N-(4-(4-(4-(trifluoromethoxy)benzoyl)piperidin-1-yl)benzyl)imidazo[1,2-a]pyridine-3-carboxamide] was greater than 69%.
On the same count and under the same terms, the value for `Cc1nc2cc(C#N)ccn2c1C(=O)NCc1ccccc1` [compound 42, N-Benzyl-7-cyano-2-methylimidazo[1,2-a]pyridine-3-carboxamide] was less than 40%; that for `CCc1nc2ccc(C(F)(F)F)cn2c1C(=O)NCc1ccc(OC(F)(F)F)cc1` [compound 121, 2-Ethyl-N-(4-(trifluoromethoxy)benzyl)-6-(trifluoromethyl)imidazo[1,2-a]pyridine-3-carboxamide] was 40 to 69%; that for `Cc1nc2ccccn2c1C(=O)O` [compound 2, 2-Methylimidazo[1,2-a]pyridine-3-carboxylic acid] was less than 40%.
Regarding `CCc1nc2c(OC)cccn2c1C(=O)NCc1ccc(N2CCN(c3ccc(F)cc3)CC2)cc1` [compound 263, 2-Ethyl-N-(4-(4-(4-fluorophenyl)piperazin-1-yl)benzyl)-8-methoxyimidazo[1,2-a]pyridine-3-carboxamide], the inhibition at 10 µM lay in the range of 40 to 69%.
`CCc1nc2ccc(C)cn2c1C(=O)NCc1ccc(-c2ccccc2)cc1` [compound 57, N-(Biphenyl-4-ylmethyl)-2-ethyl-6-methylimidazo[1,2-a]pyridine-3-carboxamide] came in with an inhibition at 10 µM of 40 to 69%.
The molecule `CCc1nc2ccc(Cl)cn2c1C(=O)NCc1ccn(-c2ccc(OC(F)(F)F)cc2)n1` [compound 132, 6-Chloro-2-ethyl-N-((1-(4-(trifluoromethoxy)phenyl)-1H-pyrazol-3-yl)methyl)imidazo[1,2-a]pyridine-3-carboxamide] showed an inhibition at 10 µM of 40 to 69%.
In the case of `CCc1nc2ccc(Cl)cn2c1C(=O)NCc1ccc(N2CCC(Oc3ccc(F)cc3)CC2)cc1` [compound 308, 6-Chloro-2-ethyl-N-(4-(4-(4-fluorophenoxy)piperidin-1-yl)benzyl)imidazo[1,2-a]pyridine-3-carboxamide], the inhibition at 10 µM lay in the range of 40 to 69%.
`CCc1nc2ccc(C)cn2c1C(=O)NCc1ccc(N2CCOCC2)cc1` [compound 315, 2-ethyl-6-methyl-N-(4-morpholinobenzyl)imidazo[1,2-a]pyridine-3-carboxamide] showed an inhibition at 10 µM of less than 40%.
For `CCc1nc2ccc(Cl)cn2c1C(=O)N1CCC(OCc2ccc(OC)cc2)CC1` [compound 335, (6-chloro-2-ethylimidazo[1,2-a]pyridin-3-yl)(4-((4-methoxybenzyl)oxy)piperidin-1-yl)methanone], the inhibition at 10 µM is less than 40%.
As for `CCc1nc2ccc(Br)cn2c1C(=O)NCc1ccc(Oc2ccc(F)cc2)cc1` [compound 177, 6-Bromo-2-ethyl-N-(4-(4-fluorophenoxy)benzyl)imidazo[1,2-a]pyridine-3-carboxamide], the inhibition at 10 µM is less than 40%.
In the case of `CCc1nc2ccc(Cl)cn2c1CNCCc1cccnc1` [compound 343, N-((6-chloro-2-ethylimidazo[1,2-a]pyridin-3-yl)methyl)-2-(pyridin-3-yl)ethanamine], the inhibition at 10 µM was less than 40%.
Still for that read-out and setting: the figure for `CCc1nc2ccc(Cl)cn2c1C(=O)NCc1ccc(N2CCN(C(=O)c3ccc(F)cc3)CC2)cc1` [compound 319, 6-chloro-2-ethyl-N-(4-(4-(4-fluorobenzoyl)piperazin-1-yl)benzyl)imidazo[1,2-a]pyridine-3-carboxamide] is less than 40%; for `Cc1nc2ccccn2c1C(=O)NCCOCc1ccccc1` [compound 29, N-(2-(Benzyloxy)ethyl)-2-methylimidazo[1,2-a]pyridine-3-carboxamide] it is less than 40%; for `CCc1nc2ccc(C)cn2c1C(=O)NCc1ccc(Oc2ccc(OC(F)(F)F)cc2)cc1` [compound 232, 2-Ethyl-6-methyl-N-(4-(4-(trifluoromethoxy)phenoxy)benzyl)imidazo[1,2-a]pyridine-3-carboxamide] it is greater than 69%.
`CCOC(=O)c1c(C)nc2ccc(-c3ccccc3)cn12` [compound 27, Ethyl 2-methyl-6-phenylimidazo[1,2-a]pyridine-3-carboxylate]: the inhibition at 10 µM was 40 to 69%.

The same assay, now with this note: 6 or 11 point dose response in duplicate.
`CCc1nc2ccccn2c1C(=O)NCc1ccc(N2CCC(c3ccc(F)cc3)CC2)cc1` [compound 265, 2-Ethyl-N-(4-(4-(4-fluorophenyl)piperidin-1-yl)benzyl)imidazo[1,2-a]pyridine-3-carboxamide] returned an IC50 of less than 1000 nM.
The same measure, in the same setting: the value for `CCc1nc2cc(Cl)ccn2c1C(=O)N1CCC(OCc2ccc(OC(F)(F)F)cc2)CC1` [compound 393, (7-chloro-2-ethylimidazo[1,2-a]pyridin-3-yl)(4-(4-(trifluoromethoxy)benzyloxy)piperidin-1-yl)methanone] was less than 1000 nM.
For `CCc1nc2cccnn2c1C(=O)NCc1ccc(-c2ccc(Cl)cc2)cc1` [compound 388, N-((4′-Chloro-[1,1′-biphenyl]-4-yl)methyl)-2-ethylimidazo[1,2-b]pyridazine-3-carboxamide], the IC50 was greater than 20000 nM.
Molecule `CCc1nc2ccc(C)cn2c1C(=O)NCc1ccc(Oc2ccc(OC(F)(F)F)cc2)cc1` [compound 232, 2-Ethyl-6-methyl-N-(4-(4-(trifluoromethoxy)phenoxy)benzyl)imidazo[1,2-a]pyridine-3-carboxamide] registered an IC50 of less than 1000 nM.

Source of the values: US9029389B2 (Institut Pasteur Korea, priority 2011, dated 2015).
